In patent US8053013B2, “Flavour modulating substances” (Quest International Services B.V., priority 2004, dated 2011):

How the values were obtained:
[1] = Tasting session by a panel of experienced flavourists: solution in tap water (Example 7); conditions: 0.1 wt % in tap water
Method: For a tasting session by a panel of experienced flavourists a solution comprising 0.1 wt % of a flavour composition as prepared in example 4 in tap water was prepared.

[2] = Panel evaluation of HIT Duck Flavour samples with and without N Lactoyl glucosamine (Example 8); conditions: Sample B: 0.006% N Lactoyl glucosamine with 0.6% NaCl, 0.03% MSG, 0.1% HIT Duck Flavour (Quest)
Method: Two samples were prepared as follow and compared:
Sample A: 0.6% of NaCl, 0.03% of MSG and 0.1% of HIT Duck Flavour (Quest)
Sample B: 0.6% of NaCl, 0.03% of MSG, 0.1% of HIT Duck Flavour (Quest) and 0.006% N Lactoyl glucosamine as prepared in example 4.
The samples were evaluated by a panel of experienced flavourists. There was general agreement about the difference in taste between the samples: […]

Structure (SMILES): CC(O)C(=O)N[C@H]1C(O)O[C@H](CO)[C@@H](O)[C@@H]1O (some centres unmarked) [Example 4, N-Lactoyl-Glucosamine]
- taste of the solution described by panellists [1]: strong metallic, bloody, raw meat like
- taste described by flavourists, compared with sample A without the substance [2]: savoury duck flavour, with slightly metallic taste, and more meaty character, authenticity, and naturalness than sample A
